For the assay, the system named is MRSA. As to the kind of experiment: FITC assay to monitor cellular uptake of peptides (fluorescence microscopy). Format: cell-based, Staphylococcus aureus. The conditions noted are these: 2 hours post-treatment with 1 μM of FITC-peptide agents. Here is the method: An FITC assay may be utilized, to monitor cellular uptake of peptides. Peptides were conjugated to fluorescein isothiocyanate (FITC) to monitor uptake using florescence microscopy. FIG. 2A-2B show assay results for several peptides as tested in MRSA (FIG. 2A) and AcB (FIG. 2B) (fluorescent overlays 2 hours post-treatment with 1 μM of FITC peptide agents, scale bar=100 μm).
An FITC assay was utilized to monitor cellular uptake of peptides. Peptides were conjugated to fluorescein isothiocyanate (FITC) to monitor uptake using, florescence microscopy.

Ends that are not written are not given here.

Turning to “GIGKWLHSAKKFGKAFVGEIMNS (also: FITC label, site not given here) [Magainin-FITC, Magainin 2 cell penetrating peptide conjugated to fluorescein isothiocyanate (FITC)]”, the “cellular entry of FITC-peptide” value is given as “effective for entry into MRSA”. On to “KFFKFFKFFK (also: FITC label, site not given here) [cell penetrating peptide, tested conjugated to FITC]”, for which the “cellular entry of FITC-peptide” value was “effective for cellular entry”.

Take “RFFRFFRFFR (also: FITC label, site not given here) [cell penetrating peptide, tested conjugated to FITC]”: the “cellular entry of FITC-peptide” value is reported as “effective for cellular entry”.

(Values after US9909123B2, “Antisense molecules for treatment of Staphylococcus aureus infection” (priority 2013, dated 2018).)
